Results as given in patent US6071902A, “Method for treating excessive aggression” (Eli Lilly and Company, priority 1997, dated 2000).

Legend:
5-HT1C receptor = experiment: pharmacological studies, 5-HT1C receptor activity
[1] = tested on: muscarinic cholinergic receptor; experiment: pharmacological studies, muscarinic cholinergic receptor activity
[2] = detection of radiolabelled olanzapine in saliva; assay type: in vivo
Method: For example, in the treatment of adult humans, dosages of from 5 to 20 mg per day may be used. A once a day dosage is normally sufficient, although divided doses may be administered. For treatment of extreme aggression, a dose range of from 5 to 20 mg per day is suitable.

excessive aggression = experiment: double-blind multicenter clinical trial, olanzapine or placebo; assay type: in vivo, human; conditions: patients randomized to olanzapine or placebo
From the text: A double-blind multicenter clinical trial was designed to assess the safety and efficacy of olanzapine. Patients were randomized to olanzapine or placebo.

Cc1cc2c(s1)Nc1ccccc1N=C2N1CCN(C)CC1 [olanzapine, 2-methyl-4-(4-methyl-1-piperazinyl)-10H-thieno[2,3-b][1,5]benzodiazepine]
activity at the 5-HT1C receptor (5-HT1C receptor): active
muscarinic cholinergic receptor activity [1]: has muscarinic cholinergic receptor activity
detection in saliva [2]: can be detected in the saliva
efficacy in treatment of excessive aggression (excessive aggression): can be useful for the treatment of excessive aggression
